Laboratory results reported in PubChem BioAssay AID1508591.
Values joined by “and” are separate entries in the source; they are usually repeats but may differ in a detail not shown here. Identical values can stand only once.

Conditions: rat; liver microsomes; pH 7.4; 15.0 min; 1.0 µM

| half-life | SMILES |
| --- | --- |
| 1.35 min and 2.57 min | COc1ccc(C2Nc3ccccc3C(=O)N2Cc2ccco2)cc1COc1ccc(NC(C)=O)cc1 (stereo not given) |
| 7.38 min | COc1ccc(C2(C(=O)N3CCC(n4cc(-c5nc(C)no5)nn4)CC3)CC2)cc1 |
| > 30 min | N#Cc1ccc(C(=O)Nc2ccc(Cl)c(-c3nc4cc(Cl)ccc4o3)c2)c(F)c1 |
| 9.17 min | CC(C)Oc1ccc(CNC(=O)C2CCN(C(=O)N3CCOc4ccc(Cl)cc43)CC2)cc1 |
| > 30 min | CC(C)(C)c1ccc(-c2nc(SCCCOc3ccccc3)n3[nH]c(=O)cc3n2)cc1 |
| 2.6 min | Cc1ccc(-n2nc3c(=O)n(CCCC(=O)NCc4ccccc4F)nc(C)c3c2C)cc1 |
| 7.65 min | CS(=O)(=O)CCNCc1ccc(-c2ccc3ncnc(Nc4ccc(OCc5cccc(F)c5)c(Cl)c4)c3c2)o1 |
| > 30 min | CC1=C(C(=O)Nc2nncs2)C(c2[nH]ncc2Cl)N=C(Nc2nc3ccccc3o2)N1 (stereo not given) |
| > 30 min | Fc1cc(Nc2nc(-c3ccncc3)nc3ccccc23)ccc1-c1cccc(C(F)(F)F)c1 |
| 9.09 min | COC(=O)c1cccc(NC(=O)c2cnc(-c3ccc(F)cc3)nc2-c2ccncc2)c1 |
| 19 min | CCOC(=O)c1cnc2ccc(-c3cncc(NS(=O)(=O)c4ccccc4)c3)cn12 |
| 28 min | CC(=O)c1ccc(N2CCN(S(=O)(=O)c3cc4c(cc3Cl)NC(=O)C4)CC2)cc1 |
| 11 min | Cc1ccc(S(=O)(=O)Nc2ccc(C(=O)Nc3ncc(-c4ccccc4)s3)cc2)cc1 |
| 2.21 min | CC(=O)Nc1ccc(C(=O)Nc2ccc3c(c2)N(C2CCCC2)C(=O)c2ccccc2S3)cc1 |
| 1.87 min | O=C(NCCCNc1nc(Nc2cccc(NC(=O)N3CCCC3)c2)ncc1I)c1cccs1 |
| 1.69 min | COc1ccccc1N1CCN(C2CCCCC2NS(=O)(=O)c2ccccc2)CC1 (stereo not given) |
| 10 min | O=C1CCCC2=C1C(c1ccccc1C(F)(F)F)N=C(Nc1nc3ccccc3o1)N2 (stereo not given) |
| > 30 min | O=C(Nc1nnc(C2CCCCC2)s1)c1ccc(Br)s1 |
| > 30 min | C[C@@H](CCC[C@@H]1SC[C@H]2NC(=O)N[C@H]12)C(=O)O |
| 1.15 min | CC(CNC(=O)C1CCN(Cc2cc3ccccc3n2Cc2ccccc2)CC1)c1ccccc1 (stereo not given) |
| > 30 min | CCOC(=O)NNc1ccc(N(CC)CC(C)O)nn1 (stereo not given) |
| 6 min | Cc1ccc(C(=O)N2CCc3cc(-c4nc(NC(=O)Cc5ccc6c(c5)OCO6)sc4C)ccc32)cc1 |
| > 30 min | CC(C)(C)c1cc(NC(=O)Nc2ccc(-c3cn4c(n3)sc3cc(OCCN5CCOCC5)ccc34)cc2)no1 |
| 3.84 min | CCOc1cc(CNc2ccc(O)cc2)ccc1OCc1ccc(Cl)cc1 |

| half-life | SMILES |
| --- | --- |
| > 30 min | Nc1ncnc2c1C(=O)N(c1ccc(C3CCC(CC(=O)O)CC3)cc1)CCO2 (stereo not given) |
| > 30 min | NC(=O)C1CCN(c2nc(-c3cccc(N)c3)cs2)CC1 |
| 6.22 min | COc1ccccc1Nc1cnc2ccc(-c3ccc(OC)c(OC)c3)nn12 |
| > 30 min | Cc1ccc(-c2cc(C(=O)Nc3ccc(S(C)(=O)=O)cc3)c3ccccc3n2)cc1C |
| 1.3 min | CC1=C[C@@H](CN2C(=O)C(C)=C(C)C2=O)[C@H](C(C)C)C[C@H]1Cc1nc2c(C)cccc2[nH]1 |
| 1.34 min | CN(C)c1ccc(S(=O)(=O)N2CCCCC2)cc1NS(=O)(=O)c1ccc2ccccc2c1 |
| 6.3 min | Cc1ccc(NC(=O)Nc2cc3c(cc2N2CCCCC2)n(C)c(=O)n3C)cc1Cl |
| 5.28 min | Cn1nnnc1Sc1ncnc2scc(-c3ccccc3F)c12 |
| 10.5 min | CN(C)S(=O)(=O)c1cccc(NC(=O)c2ccc[nH]2)c1 |
| 1.44 min | O=C(Nc1ccccc1)C1CCN(c2ncc(-c3ccc4c(c3)OCCCO4)s2)CC1 |
| 23 min | Cc1ccc(S(=O)(=O)Nc2ccc(C(=O)Nc3nc(-c4ccccc4)cs3)c(Cl)c2)cc1 |
| 7.9 min | Fc1ccccc1Nc1nc(-c2ccncc2)nc2ccccc12 |
| 26.2 min | CNC(=O)C1CCN(c2nc(-c3ccc(Br)cc3)cs2)CC1 |
| > 30 min | COCCNc1ncnc2onc(-c3ccc(F)cc3)c12 |
| 10 min | O=S(=O)(Nc1nccs1)c1ccc(NCc2ccccc2)cc1 |
| 7.6 min | COc1ccc(S(=O)(=O)N2CCN(C(=O)C3COc4ccccc4O3)CC2)cc1 (stereo not given) |
| 22.8 min | CCOc1ccccc1C(=O)Nc1ccccc1C(=O)Nc1cccc(C(F)(F)F)c1 |
| 23 min | NC1CCC(Nc2nc(Nc3ccc(C(=O)N4CCCCC4)cc3)c3ncn(-c4cccc(F)c4)c3n2)CC1 (stereo not given) |
| 5 min | CC(=O)c1c(C)[nH]c(C(=O)Nc2cccc([S+](=O)([O-])Nc3c(C)cccc3C)c2)c1C |
| 3 min | COc1ccc(NC(=O)c2[nH]c(C)c(C(C)=O)c2C)cc1S(=O)(=O)N1CCCCCC1 |
| > 30 min | Cc1cc(C)nc(NC(=S)N2CCN(c3cccc(C(F)(F)F)c3)CC2)c1 |
| > 30 min | COc1ccc(NC(=O)c2c(C)cccc2C)cc1[S+](=O)([O-])N(C)C |
| 8.57 min | CC(C)(C)c1ccc(C(=O)N2CC(=O)Nc3ccc(F)cc3C2c2ccc(F)cc2)cc1 (stereo not given) |
| > 30 min | O=[N+]([O-])c1ccc(-c2nc(Nc3ccc(F)c(F)c3)c3ccccc3n2)cc1 |

| half-life | SMILES |
| --- | --- |
| 9.29 min | Cc1ccc(-n2ncc(C(=O)NCCN3CCC(Cc4ccccc4)CC3)c2C2CCN(C(=O)OC(C)(C)C)CC2)cc1 |
| 26 min | Cc1cc(NC(=S)N2CCN(c3cccc(C(F)(F)F)c3)CC2)nc2ccccc12 |
| 13 min | Cc1ccc(S(=O)(=O)Nc2cnccc2C(=O)Nc2nc(-c3cnn(C)c3)cs2)cc1 |
| > 30 min | O=C(Nc1ccc(Nc2ccncc2)cc1)c1ccc(Nc2ccnc3ccc([N+](=O)[O-])cc23)cc1[N+](=O)[O-] |
| > 30 min | CC(C)c1cc(C(=O)N2CC[C@@H](NC(=O)C3CC3)C2)n[nH]1 |
| 1.7 min | CCOC(=O)c1ccc(-n2cnc3cc(C(=O)N4CCCCC4)ccc32)cc1 |
| 22 min | Cc1cc(-c2nc(Nc3ccc(F)c(F)c3)c3ccccc3n2)ccn1 |
| 1.7 min | COc1cccc(CNC(=O)c2ccc(N3CCCC3)c(NC(=O)Nc3ccccc3F)c2)c1 |
| 7.89 min | NC(=O)C1CCN(c2nnc(-c3ccc(Br)cc3)s2)CC1 |
| 10.4 min | COCC(C)NCc1cc2ccc(OC)cc2nc1N1CCN(c2ccc(F)cc2)CC1 (stereo not given) |
| 16.7 min | C=C1C(=O)O[C@H]2[C@@H]1CCC(C)=CCC[C@@]1(C)O[C@@H]21 |
| 6.7 min | Cc1ccc(S(=O)(=O)Nc2cc3c(cc2C(=O)Nc2nc(-c4ccccc4)cs2)OCO3)cc1 |
| 15 min | Cc1cc(-c2nnc3n2CCCCC3)c(C)n1-c1cccnc1 |
| > 30 min | Cc1cn(CCN2CCN(c3ccccc3-c3cc(C#N)cc(C(=O)NCCCN4CCCC4)c3)CC2)c2ccccc12 |
| 9 min | COc1cc(NS(=O)(=O)c2ccc(C)cc2)c(C(=O)Nc2nc(-c3ccccc3)cs2)cc1OC |
| 3.84 min | CCC(C)N(C)C(=O)c1cc2ccccc2c(-c2ccccc2Cl)n1 (stereo not given) |
| 23.8 min | Nc1nc2c(s1)C(c1c(Cl)cccc1Cl)CC(=O)N2 (stereo not given) |
| > 30 min | O=C1CCCc2cc(S(=O)(=O)Nc3cnccc3C(=O)Nc3nc(-c4ccccc4)cs3)ccc2N1 |
| 19 min | Cc1ccc(S(=O)(=O)Nc2cncc(C(=O)Nc3nc(-c4ccccc4)cs3)c2)cc1 |
| 6 min | CCOC(=O)c1nnc(N[S+](=O)([O-])c2ccc(NC(=O)Cc3ccc(Cl)c(Cl)c3)cc2)s1 |
| 2.12 min | CC1CCC(NC(=O)c2ccc3c(c2)N(Cc2ccccc2F)C(=O)c2ccccc2S3)CC1 (stereo not given) |
| 8.98 min | CCOc1ccccc1C(=O)NC1CCN(c2cc(C)cc(C)c2)C1=O (stereo not given) |
| > 30 min | O=C(O)c1ccnc(-c2cc(C(=O)NCCc3ccccc3)ccn2)c1 |
| > 30 min | CCC(=O)NC(c1cccs1)c1cc([N+](=O)[O-])c2cccnc2c1O (stereo not given) |

| half-life | SMILES |
| --- | --- |
| 2.16 min | COc1ccccc1N1CCN(c2ccc3cc(S(=O)(=O)N4CCCCC4)ccc3n2)CC1 |
| 6.6 min | Nc1c(C(=O)N2CCCCC2)sc(=S)n1-c1ccccc1 |
| > 30 min | c1cc(OCCN2CCCCC2)cc(-c2n[nH]c3ccc(-c4ncn[nH]4)cc23)c1 |
| 8.47 min | COc1ccc(CNC(=O)c2sc3nc(C)cc(C)c3c2N)cc1 |
| 1.6 min | Cc1ccc(C)c(S(=O)(=O)NCC2CN(Cc3ccccc3)CCO2)c1 (stereo not given) |
| 5 min | Cc1ccccc1S(=O)(=O)N1CCc2cc(-c3nc(NC(=O)Cc4ccc5c(c4)OCO5)sc3C)ccc21 |
| > 30 min | O=C(Nc1cn[nH]c1-c1nc2ccc(CN3CCOCC3)cc2[nH]1)NC1CC1 |
| > 30 min | Cc1nc([N+](=O)[O-])cn1-c1ccc([N+](=O)[O-])cc1 |
| 11 min | COc1cccc(-n2ncc3c2CCCC3NC(=O)c2ccccn2)c1 (stereo not given) |
| > 30 min | Nc1cccc(CNc2ccc(S(=O)(=O)Nc3nccs3)cc2)c1O |
| > 30 min | O=C(O)c1cnc(-c2ccc(F)cc2)nc1-c1ccncc1 |
| > 30 min | Cc1cc(C)nc(NS(=O)(=O)c2ccc(NC(=S)NC(=O)COc3ccc(Br)cc3Cl)cc2)n1 |
| > 30 min | C[S+](=O)([O-])c1ccc(-c2nc(C(=O)NCc3cccnc3)n3ccccc23)cc1 |
| > 30 min | O=C(c1ccco1)N1CCN(c2nc(-c3ccc(Br)cc3)cs2)CC1 |
| > 30 min | O=C(NCC1CCOCC1)C1CC(=O)N(c2n[nH]c3cc(Br)ccc23)C1 (stereo not given) |
| > 30 min | NC(=O)C1CCN(c2ncc(-c3cccc(N4CCOCC4)c3)s2)CC1 |
| 1.9 min | O=C(NCc1ccc(N2CCCC2)nc1)c1cc(Cl)ccc1O |
| 2 min | Cc1ccnc(NC(=S)N2CCN(c3ccccc3C(F)(F)F)CC2)c1 |
| 1.6 min | Cc1cc(C)nc(N2CCCC(C(=O)NCCc3ccc(F)cc3)C2)n1 (stereo not given) |
| 22 min | Cc1cc(NC(=O)c2ccc(NC(=O)Cc3ccc(Cl)c(Cl)c3)cc2)no1 |
| 4.76 min | CC1=C[C@@H](CNC(C)C)[C@H](C(C)C)C[C@H]1Cc1nnc(-c2ccncc2)o1 |

| SMILES | half-life |
| --- | --- |
| CCCNc1oc(-c2cccc3ccccc23)nc1C#N | 13 min |
| CN1CCc2cc3c(cc2C1)OCO3 | 1 min |
| CCOC(=O)c1ccnc2cc(C(OCCN3CCCCC3)c3ccccc3Cl)sc12 (stereo not given) | 2.34 min |
| CN[C@@H]1C[C@@H](c2ccc(Cl)c(Cl)c2)c2ccccc21 | 17.2 min |
| N[C@@H](Cc1cc(Br)c(O)c(Br)c1)C(=O)O | > 30 min |
| Cc1cccc(-n2nc(C)c3c2NC(=O)CSC3c2ccccc2Cl)c1 (stereo not given) | 1.63 min |
| COC1C(OC(=O)c2ccc(C)[nH]2)C(O)C(Oc2ccc3c(O)c(NC(=O)c4ccc(O)c(CC=C(C)C)c4)c(=O)oc3c2Cl)OC1(C)C (stereo not given) | 28.3 min |
